These results are taken from PMC7156724, “Potent BRD4 inhibitor suppresses cancer cell-macrophage interaction” (Nature Communications, 2020).

One experiment relates to HIF1α protein. Put plainly: Western blot of HIF1α in A375 and A2780 cells at 20% or 1% O2. Format: cell-based, human. The conditions noted are these: 25 nM, 20% or 1% O2, 24 h. As for the experimental part:
Fig. 7 NHWD-870 inhibited CSF1 expression through suppressing BRD4 and HIF1α in tumor cells. a, b Representative western blot analysis of control (Ctrl) and BRD4 knockout (KO) A375 and A2780 cells exposed to 20% or 1% O2 for 24 hours. Selected from three independent experiments. c, d Representative western blot analysis of A375 and A2780 cells treated with DMSO or 25 nM NHWD-870 and exposed to 20% or 1% O2 for 24 h. Selected from three independent experiments. e Relative HIF1 luciferase reporter activity in control (Ctrl), BRD4 knockout (KO), or NHWD-870 treated A375 and A2780 cells exposed to 20% or 1% O2 for 24 h. […] NHWD-870 inhibits the proliferation and survival of TAMs partly by inhibiting BRD4 activity, HIF1α expression, and CSF1 secretion by tumor cells, and downregulating CSF1R mediated ERK and PI3K/AKT signaling in TAMs. p values were calculated using two-tailed, unpaired t tests in this figure. *p < 0.05; **p < 0.01; ***p < 0.001. […]
of treatment, 10 μl AlamarBlue reagent (0.3 mg/ml) was added to each well, and after 18h, the florescence intensity in each well was measured using a top-reading fluorescent plate reader with excitation at 530 nm and emission at 590 nm.
4. […] Supernatants were collected and determined with a Bradford Protein Assay kit (Bio-Rad, Hercules, CA). […]
every week. […] Colony numbers were calculated with imageJ version

In a further experiment the test system is TAMs. Put plainly: Ki67 FACS of TAMs induced by CSF1. In kind it is cell-based, mouse. As for the experimental part: Flow cytometry analyses were performed using antibodies listed in Supplementary Table 8. For cell surface markers, mouse TAM suspensions were stained with mouse APC-CD45, FITC-CD11b, PE-F4/80 or APC-F4/80, CD68, and PE-CD206 antibodies for 15 min on ice. For Ki67 staining, cells were fixed in 4% paraformaldehyde and stained with FITC-Ki67. Isotype matching antibody served as the negative control. Flow cytometry was performed on a FACSCalibur (BD Biosciences). Data were analyzed with BD CellQuest Pro software version 5.1.
Supplementary Figure 14. NHWD-870 and BRD4 deletion partially inhibite d prolifera tion of TAMs […]
(a) CD45+CD11b+F4/80 + TAMs in the orthotopic B16 melanoma model were harvested from tumors. Shown are representative FACS plots of TAMs. (b,c) Representative FACS plots (b) and quantification (c) of Ki67+ macrophages treated with 50 ng/ml CSF1, and DMSO or 25 or 50 nM NHWD-870. […]
TAMs induced by CSF1. (a-c) CD11b+F4/80+ macrophages in the orthotopic B16F10 melanoma model were harvested from tumor tissues. Shown are representative CD45+, CD11b+, F4/80+ FACS plots (a) and quantification of the percentage of Ki67+ cells after treatment with DMSO or NHWD-870 dependent on CSF1 stimulation (b,c). (d-g) FACS plots and quantification of the percentage of Ki67+ cells after CRISPR/Cas9-mediated BRD4 knockout (d,e) and c-MYC knockout (f,g) in CD11b+F4/80+ macrophages. CSF1 is added at the indicated concentration.
Please also see response to comment # 4 about our 2D assays, in which we used colony number to quantify the number of TAMs.
NHWD-870 treatment and the main differences are colony size.
6. For comparison purposes, it would be a good idea to compare the direct effect of NHWD-870 on in […]
marrow derived macrophage proliferation and gene expression in vitro). […]

For `Cc1nnn(C)c1-c1cnc2c3c4cnn(C)c4ccc3n([C@H](c3ccccc3)C3CCOCC3)c2c1` [NHWD-870], the “HIF1α protein (western blot)” value in the experiment on HIF1α protein is on record as “decreased HIF1α protein”. Moreover, the “decrease of TAMs proliferation (Ki67 FACS)” value in the experiment with TAMs (TAMs induced by CSF1) is on record as ~ 50%. The “fold decrease of CSF1 induced growth of macrophages” value with TAMs (direct treatment of TAMs in 2D growth assays) is recorded as less than 2 fold.
